Non-standard residues stand in square brackets, D forms with d. No end group written: not given here. *: point of attachment. Aib = CC(C)(N)C(=O)O; Propyl = CCC*
Key:
[1] = target: T1, CRH-1 receptor (Homo sapiens, UniProt P34998); assay: Binding affinity of h/r-CRH analogues to the CRH-1 receptor; conditions: averages from 3 experiments performed in duplicates
T1 sequence (P34998 24-415): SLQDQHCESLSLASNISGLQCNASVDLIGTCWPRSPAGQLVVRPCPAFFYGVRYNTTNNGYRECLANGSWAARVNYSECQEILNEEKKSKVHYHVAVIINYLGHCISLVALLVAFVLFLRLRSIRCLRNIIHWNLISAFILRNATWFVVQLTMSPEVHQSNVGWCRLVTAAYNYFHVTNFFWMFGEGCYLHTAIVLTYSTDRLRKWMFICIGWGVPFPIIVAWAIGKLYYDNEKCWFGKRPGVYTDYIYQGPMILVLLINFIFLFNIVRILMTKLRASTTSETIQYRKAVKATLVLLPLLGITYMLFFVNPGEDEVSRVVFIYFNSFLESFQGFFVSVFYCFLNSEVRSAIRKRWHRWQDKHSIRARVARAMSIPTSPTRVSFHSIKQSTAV

[2] = target: T2, CRH-R1 (Homo sapiens, UniProt P34998); assay: Stimulation of cyclic AMP generation (CRE-luciferase activity) in LLC-PK1 cells cotransfected with CRH-R1 and CRE; assay type: cell-based; conditions: LLC-PK1 cells cotransfected with CRH-R1 and CRE cDNA; peptides 10^-6 to 10^-11 M, 7 hours at 37°C; luciferase read-out; maximum response compared to h/r-CRH; read-out: Biological activity: % Response max/CRH
T2 construct: expressed in transfected cells; host or cells: LLC-PK1 cells (electroporation)
T2 sequence (P34998 24-415): T1 sequence (P34998 24-415)
Method: The capacity of CRH and related peptide analogues to stimulate cyclic AMP generation was monitored in LLC-PK1 cells cotransfected with cDNA of CRH-R1 and CRE. For transfection the method of electroporation was applied and 40 millions of LLC-PK1 cells were prepared and washed in cytomix 1X transfection medium. The electroporation medium consisted of 1000 μL of cytomix 2X, 864 μL of sterilized water, 80 μL of ATP 50 mM, 3.2 mg of glutathion, 20 μg of CRH-R1 cDNA and 20 μg of CRE cDNA. 500 μL of the above solution were transferred in the electroporation device and after remaining for 10 minutes a standard growth medium was added (DMEM without phenol red with glutamine, antibiotics, and 10% FCS) to a total volume of 50 mL. The suspension was distributed in […] of 24 wells each, by adding 1 mL per well, and was allowed to pre-incubate for 24 hours. The growth medium was aspirated and replaced with fresh one followed by another preincubation for 24 hours. The cells were then challenged with graded concentrations (10^−6 to 10^−11 M) of the test peptides and incubated for 7 hours at 37°C. After that, the medium with the added peptides was removed, the cells were washed twice with PBS 1X, 100 μL of lysis buffer 1X per well were added, the plates were left at room temperature for 30 minutes and then stored at −80°C overnight. The luciferace activity was measured with the use of a luminometer after the addition of 50 μL of lysed cell preparation and 50 μL of bioluminescence medium per well in a 96 well plate luminometer.

[3] = times more potent than α-helical CRH; cited from earlier work
From the text: Introduction of D-amino acids leading to stabilization of β-turns, can provide analogues with increased potency but not all residues are susceptible to such an alteration, leading even to the opposite effect. However, the D-Phe^12 substitution has proven to be a favorable one especially combined with other advantageous modifications such as the replacement of Met at positions 21 and 38 with Nle.

Substance: SEEPPISLDLT[dF]HLLREVLEMARAEQLAQQAHSNRKLC(Propyl)EII-NH2 [Analogue 4, [D-Phe^12, Cys(Pr)^38]CRH]
- IC50 [1]: 0.035 µM
- Emax [2]: 60%

Substance: SEEPPISLDLT[dF]HL[Aib]REVLEMARAEQLAQQAHSNRKLMEII-NH2 [Analogue 2, [D-Phe^12, Aib^15]CRH]
- IC50 [1]: 0.0084 µM
- Emax [2]: 60%

Substance: SEEPPISLDLT[dF]H[Aib]LREVLEMARAEQLAQQAHSNRKLMEII-NH2 [Analogue 1, [D-Phe^12, Aib^14]CRH]
- IC50 [1]: 0.226 µM
- Emax [2]: 60%

Substance: [D-Phe^12, Nle^21, 38]CRH21-41
- Potency relative to α-helical CRH [3]: 15 times

Substance: [D-Phe^12]CRH
- Potency relative to α-helical CRH [3]: twice
